Results taken from patent US20250127907A1, “PARP INHIBITORS” (Stablix, Inc., priority 2023, published 2025).
Like-named read-outs stand apart in the source and are kept apart here.

Experiments:
A2780 cells = assay: Cell proliferation assay (A2780); format: cell-based; settings: 7 days
Description: (§1) Cells are counted, diluted to desired density and 40 μL of cell suspension is added into each 384-well tissue-culture treated plates. Plates are incubated in Tissue Culture incubator at 37° C./5% C02 overnight.
(§2) Next day, 40 nl test compounds that are prepared from source plates are transferred to the seeded cells from overnight. Plates are incubated at 37° C./5% C02 for a total of 7 days. After 7-day incubation, plates are equilibrated to room temperature and 30 ul of Cell Counting-Lite is added to each well for a 30 min incubation followed by reading on EnVision.
(§3) The letter codes for the cell proliferation assay in A2780, HCC1806, and MDA-MB-436 cells include: A (<10 nM), B (>10-100 nM), C (>100-1000 nM), D (>1000-10000 nM), E (>10000 nM), and “-” is not tested.

PARP1 [1] = biological target: T1, PARP1 (Homo sapiens, UniProt P09874); assay: PARP trapping assay in U2OS cells; format: cell-based; design: endogenous in cells; host or cells: U2OS; settings: U2OS cells, MMS, 4 hrs; read-out: PARP Trapping (U2OS)
Description: U2OS cells are seeded at 15,000 cells/well in 90 ul medium and incubated in the TC incubator for overnight.
Next day, test compounds are prepared in a source plate along with addition of DNA damage reagent MMS simultaneously and 10 ul of the diluted mixture is added to the cell plate and incubated for 4 hrs under T/C conditions.
After 4 hrs, following aspiration and washing, add 100 ul of cold cytoskeleton removal buffer (0.5% Triton X-100) and incubated for 10 min. At the end of incubation, slowly the buffer is removed, and cells are fixed with ice cold MeOH for 15 min at −20C. Followed by wash steps, cells are blocked with 1×PBS/3% BSA/0.05% Tween for 1 h at room temperature.
Cells are stained with anti PARP1 antibody (abeam ab227244, 1:1000), in 1×PBS/1% BSA overnight at 4C.
Wash and add DAPI, scan cells in Celigo.
Data Analysis: DAPI staining is used to segment nuclei and AF488 fluorescence intensity per nucleus is measured.
(§4) The letter codes for the PARP1-enzyme assay include: A (<1 nM), B (>1-10 nM), C (>10-100 nM), D (>100-1000 nM), E (>1000 nM), and “-” is not tested. The letter codes for the PARP trapping assay, and parylation assay include: A (<10 nM), B (>10-100 nM), C (>100-1000 nM), […], E (>10000 nM), and “-” is not tested.
Target sequence in this assay (P09874 whole entry): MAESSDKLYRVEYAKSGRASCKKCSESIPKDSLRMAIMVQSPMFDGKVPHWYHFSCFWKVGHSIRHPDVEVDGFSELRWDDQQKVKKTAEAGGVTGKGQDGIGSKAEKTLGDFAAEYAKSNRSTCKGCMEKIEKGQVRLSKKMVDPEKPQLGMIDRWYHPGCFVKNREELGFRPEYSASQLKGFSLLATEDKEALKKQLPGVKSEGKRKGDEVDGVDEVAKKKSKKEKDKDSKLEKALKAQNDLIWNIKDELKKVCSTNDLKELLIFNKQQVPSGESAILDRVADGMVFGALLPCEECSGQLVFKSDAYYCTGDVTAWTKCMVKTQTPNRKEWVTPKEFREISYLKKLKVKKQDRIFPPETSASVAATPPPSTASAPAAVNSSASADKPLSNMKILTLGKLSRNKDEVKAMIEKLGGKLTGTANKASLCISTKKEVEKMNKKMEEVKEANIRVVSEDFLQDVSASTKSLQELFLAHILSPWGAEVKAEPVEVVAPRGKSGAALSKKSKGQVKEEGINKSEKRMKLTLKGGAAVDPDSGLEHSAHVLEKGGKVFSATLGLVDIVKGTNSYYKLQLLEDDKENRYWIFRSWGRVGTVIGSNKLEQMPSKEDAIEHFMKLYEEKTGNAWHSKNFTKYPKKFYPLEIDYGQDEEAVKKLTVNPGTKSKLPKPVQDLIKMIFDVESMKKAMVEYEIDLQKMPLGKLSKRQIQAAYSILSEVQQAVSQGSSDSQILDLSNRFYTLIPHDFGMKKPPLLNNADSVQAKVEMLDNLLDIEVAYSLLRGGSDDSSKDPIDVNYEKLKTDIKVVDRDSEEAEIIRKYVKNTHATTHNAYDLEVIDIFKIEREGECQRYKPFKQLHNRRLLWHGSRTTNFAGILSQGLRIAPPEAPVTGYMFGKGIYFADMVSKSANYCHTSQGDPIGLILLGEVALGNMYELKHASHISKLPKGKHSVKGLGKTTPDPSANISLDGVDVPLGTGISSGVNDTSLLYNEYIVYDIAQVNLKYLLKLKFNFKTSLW

[2] = system: Poly/Mono-ADP Ribose in U2OS cells; assay: PAR in cell western assay (parylation) in U2OS cells; format: cell-based; settings: read-out: Parylation (U2OS)
Description: U2OS cells are seeded at 2667 cells per well in 24 ul medium into poly-D lysine-coated 384 well plate and incubated in the TC incubator for O/N
The next day, test comps are diluted in a source plate and 6 μL of the diluted comp is added to the cell plate; mixed well and incubated for 6 hrs. DNA damage is induced with 2 mM H2O2 for 10 min. After discarding the medium, cells are fixed in ice cold Methanol at for 20 min at −20C. After a wash step at room temperature, cells are permeabilized with 0.05% NP-40 in PBS for 10 min, followed by wash steps. Cells are blocked with 1% BSA, at room temperature for 1 hr. Cells are stained with anti mono/polyADP ribose antibody (E6F6A, Cell signaling, 1:5000) in 1×PBS/1% BSA/0.05% Tween o/n at 4C.
Next Day, cells are washed and incubated with anti-Rabbit 800CV (Licor antibody, 1:500) and CellTag 700 (Licor, 1:800) in 1×PBS/1% BSA/0.05% Tween for 1 h. After washing, plates are scanned using LICOR and are quantified.
Parylation inhibition is reported as % control inhibition.
as §4

PARP1 [3] = biological target: T1, PARP1; assay: PARP1-enzyme assay (NAD/NADH-Glo biochemical assay); settings: recombinant PARP1, NAD+ consumption
Description: The PARP enzyme catalyzes the transfer of ADP-Ribose from NAD+ onto PAR chains/histone substrates. The catalytic cycle is monitored indirectly with the NAD/NADH-Glo Assay kit from Promega. […] NAD+ consumed is determined by comparison to the no enzyme control.
• Recombinant PARP1 • NAD+/NAHD-Glow assay Kit • Activated DNA, 10 μg/mL • NAD+(Nicotinamide Adenine Dinucleotide), 500 nM • Protein substrate for PARP1: Core Histone from chicken, 10 μg/mL
as §4
Target sequence in this assay (P09874 whole entry, species assumed): as the sequence (P09874 whole entry) above

MDA-MB-436 cells = assay: Cell proliferation assay (MDA-MB-436); format: cell-based; settings: 7 days
Description: as §1, §2, §3

HCC1806 cells = assay: Cell proliferation assay (HCC1806); format: cell-based; settings: 7 days
Description: as §1, §2, §3

[4] = Homo sapiens, U2OS cells, 6 hrs, 2 mM H2O2

IC50 (A2780 cells; Homo sapiens, 168 h) [µM] | IC50 (PARP1 [1]) [µM] | IC50 [2, 4] [µM] | IC50 (PARP1 [3]) [µM] | IC50 (MDA-MB-436 cells; Homo sapiens, 168 h) [µM] | IC50 (HCC1806 cells; Homo sapiens, 168 h) [µM] | IC50 (A2780 cells) [µM] | IC50 (HCC1806 cells) [µM] | IC50 ([2]; U2OS cells, 6 hrs, 2 mM H2O2) [µM] | IC50 (MDA-MB-436 cells) [µM] | SMILES | IC50 ([2]; Homo sapiens, U2OS, 6 h) [µM]
0.1 to 1 | 0.1 to 1 | 0.01 to 0.1 | < 0.001 | 0.01 to 0.1 |  |  |  |  |  | O=C(N[C@@H](C(=O)N1CCN(CC2CCN(CC(=O)N3CCN(C(=O)c4cc(Cc5n[nH]c(=O)c6ccccc56)ccc4F)CC3)CC2)CC1)C1CCCCC1)c1cc(C2CCCN(C(=O)CNCc3ccc(F)cc3F)C2)ccc1F (stereo partly shown) [Compound I-346] | 
0.1 to 1 | 0.1 to 1 | 0.1 to 1 | < 0.001 | 0.01 to 0.1 |  |  |  |  |  | O=C(N[C@@H](C(=O)N1CCN(CC2CCN(CC(=O)N3CCN(C(=O)c4cc(Cc5n[nH]c(=O)c6ccccc56)ccc4F)CC3)CC2)CC1)C1CCCCC1)c1cccc(C2CCCN(C(=O)COC3CC3)C2)c1 (stereo partly shown) [Compound I-353] | 
0.01 to 0.1 | 0.01 to 0.1 | 0.01 to 0.1 |  | < 0.01 | 0.01 to 0.1 |  |  |  |  | CC1(C(=O)N2CCC(c3cccc(C(=O)N[C@@H](C(=O)N4CCC(OC5CCN(CC(=O)N6CCN(C(=O)c7cc(Cc8n[nH]c(=O)c9ccccc89)ccc7F)CC6)CC5)CC4)C4CCCCC4)c3F)CC2)CC1 [Compound I-883] | 
0.01 to 0.1 | 0.01 to 0.1 | 0.1 to 1 |  | < 0.01 | 0.01 to 0.1 |  |  |  |  | CC1(C(=O)N2CC(c3cccc(C(=O)N[C@@H](C(=O)N4CCC(OC5CCN(CC(=O)N6CCN(C(=O)c7cc(Cc8n[nH]c(=O)c9ccccc89)ccc7F)CC6)CC5)CC4)C4CCCCC4)c3F)CCC2(C)C)CC1 (stereo partly shown) [Compound I-884] | 
0.1 to 1 | 0.01 to 0.1 | 0.1 to 1 |  | 0.01 to 0.1 | 0.1 to 1 |  |  |  |  | CC1(OC2CCN(CC(=O)N3CCN(C(=O)c4cc(Cc5n[nH]c(=O)c6ccccc56)ccc4F)CC3)CC2)CCN(C(=O)[C@H](NC(=O)c2cccc(C3CCCN(C(=O)C45CC(C4)C5)C3)c2F)C2CCCCC2)CC1 (stereo partly shown) [Compound I-892] | 
0.1 to 1 | 0.01 to 0.1 | 0.1 to 1 |  | 0.01 to 0.1 | 0.1 to 1 |  |  |  |  | CC1(OC2CCN(CC(=O)N3CCN(C(=O)c4cc(Cc5n[nH]c(=O)c6ccccc56)ccc4F)CC3)CC2)CCN(C(=O)[C@H](NC(=O)c2cccc(C3CCCN(C(=O)C4(C)CC4)C3)c2F)C2CCCCC2)CC1 (stereo partly shown) [Compound I-893] | 
0.01 to 0.1 | 0.01 to 0.1 | 0.01 to 0.1 |  | < 0.01 | 0.01 to 0.1 |  |  |  |  | CC(C)(C)OC(=O)N[C@@H](C(=O)N1C[C@H]2CC[C@@H](C1)[C@H]2OC1CCN(CC(=O)N2CCN(C(=O)c3cc(Cc4n[nH]c(=O)c5ccccc45)ccc3F)CC2)CC1)C1CCCCC1 [Compound I-990] | 
 | 0.01 to 0.1 |  |  |  |  | 0.01 to 0.1 | 0.01 to 0.1 | 0.01 to 0.1 | < 0.01 | CC(C)(C)OC(=O)N[C@@H](C(=O)NC12CCC(CN3CCC(C(=O)N4CCN(C(=O)c5cc(Cc6n[nH]c(=O)c7ccccc67)ccc5F)CC4)CC3)(CC1)OC2)C1CCCCC1 [Compound I-993] | 

SMILES | IC50 (A2780 cells; Homo sapiens, 168 h) [µM] | IC50 (PARP1 [1]) [µM] | IC50 [2, 4] [µM] | IC50 (PARP1 [3]) [µM] | IC50 (MDA-MB-436 cells; Homo sapiens, 168 h) [µM] | IC50 (HCC1806 cells; Homo sapiens, 168 h) [µM] | IC50 (A2780 cells) [µM] | IC50 (HCC1806 cells) [µM] | IC50 ([2]; U2OS cells, 6 hrs, 2 mM H2O2) [µM] | IC50 (MDA-MB-436 cells) [µM] | IC50 ([2]; Homo sapiens, U2OS, 6 h) [µM]
O=C(N[C@@H](C(=O)N1CCN(CC(=O)N2CCN(C(=O)c3cc(Cc4n[nH]c(=O)c5ccccc45)ccc3F)CC2)CC1)C1CCCCC1)c1cccc(C2CCCN(C(=O)CNCc3ccc(F)cc3F)C2)c1 (stereo partly shown) [Compound I-963] | 0.1 to 1 |  |  | < 0.001 | 0.1 to 1 |  |  |  |  |  | 0.1 to 1
CC(C)(C)C(=O)N1CCC[C@@H](c2cccc(C(=O)N[C@@H](C(=O)N3C4CCC3CC(OC3CCN(CC(=O)N5CCN(C(=O)c6cc(Cc7n[nH]c(=O)c8ccccc78)ccc6F)CC5)CC3)C4)C3CCCCC3)c2F)C1 (stereo partly shown) [Compound I-971] | 0.01 to 0.1 | 0.01 to 0.1 | 0.01 to 0.1 |  | < 0.01 | 0.1 to 1 |  |  |  |  | 
